Earlier results as cited in patent US20100239682A1, “COLONIC DELIVERY OF ANTIMICROBIAL AGENTS” (priority 2007, published 2010).

Legend:
[1] = tested on: Enterobacteriaceae; conditions: human volunteers, oral, different dosages
[2] = human volunteers, high doses

colistin [Colimycin]
effectiveness at achieving selective decontamination [1]: only high dosages of Colimycin were effective | tolerance at the gastric level [2]: very poorly tolerated
